Measurements: patent publication US20190064177A1, “INCORPORATING COMPETITIVE BINDING INFORMATION INTO MOLECULAR ARRAY ANALYSIS TO GENERATE FUNCTION NETWORKS OF INTERACTIONS” (ARIZONA BOARD OF REGENTS ON BEHALF OF ARIZONA STATE …, priority 2017, published 2019)

System: diaphorase
Assay: fluorescently labeled diaphorase binding to peptide array with or without excess FAD
Conditions: for Meas. ratio: ratio without/with FAD calculated from measured binding values; for Meas. ratio / 1 microM noFAD/FAD: 1 micromolar diaphorase; for 1 microM FAD (array fluorescence of bound diaphorase) / 1 micro no FAD (array fluorescence of bound diaphorase): 1 micromolar labeled diaphorase; for 1 microM FAD (array fluorescence of bound diaphorase) / 10 microM FAD (array fluorescence of bound diaphorase): excess FAD present; for 1 microM FAD (array fluorescence of bound diaphorase) / 1 micro no FAD (array fluorescence of bound diaphorase) / 10 microM FAD (array fluorescence of bound diaphorase) / 10 microM no FAD (array fluorescence of bound diaphorase): 65535 is detector saturation; for 10 microM FAD (array fluorescence of bound diaphorase) / 10 microM no FAD (array fluorescence of bound diaphorase): 10 micromolar labeled diaphorase; for 1 microM noFAD/FAD / 10 microM noFAD/FAD: ratio of binding without FAD to binding with FAD; for 10 microM noFAD/FAD: 10 micromolar diaphorase
Method: Measurements were performed in which diaphorase was bound to an array of about 126,000 unique sequences. The sequences were chosen simply to cover sequence space. 16 of the natural 20 amino acids were used to make up these sequences with C, I, M and T omitted. The diaphorase was fluorescently labeled and each peptide sequence feature was scanned and fluorescence recorded on the array. Diaphorase bound tightly to some peptides and not at all to others. Two different concentrations of diaphorase were used, 1 and 10 micromolar, and the diaphorase was either bound in the presence of excess FAD or not. […] Indeed the Pearson correlation coefficient between w/ and w/o FAD was >0.97, which actually speaks to the reproducibility of this dataset. However, there are some differences as shown on the scatter plot of FIG. 1. When one takes a ratio of the binding without FAD and the binding with FAD, one finds the following top 30 ratios (Table 1): Note that all these sequences end with a GSG linker sequence. Because there are two concentrations, one can easily check for consistency. Note that 65535 is detector saturation, so one has to ignore those values. For this reason, the lower concentration is used most of the time. […] It appears that this was some kind of error and was ignored in subsequent analysis. A similar conclusion can be made with the 7th highest value. Looking at the sequences, RW or at least R or K followed by a nonpolar or aromatic amino acid at the N-terminus. This is interesting as FAD is negatively charged, though the adenine in FAD looks a bit like tryptophan (see FIG. 2).

Meas. ratio	1 microM FAD (array fluorescence of bound diaphorase)	1 micro no FAD (array fluorescence of bound diaphorase)	10 microM FAD (array fluorescence of bound diaphorase)	10 microM no FAD (array fluorescence of bound diaphorase)	1 microM noFAD/FAD	10 microM noFAD/FAD	Sequence
0.73	–	–	–	–	–	–	AFNVWQYFEGGSG [array peptide with C-terminal GSG linker]
0.54	4182.5	2264.25	36729	16544	0.5414	0.4504	AFYGLELGGSG [array peptide with C-terminal GSG linker]
0.69	–	–	–	–	–	–	ALDKLSGLWKHVG
0.65	3089	2012.5	22739.5	12627	0.6515	0.5553	AQVAVDGFYVDGSG [array peptide with C-terminal GSG linker]
2.18	–	–	–	–	–	–	ARWQQYKFGGSG [array peptide with C-terminal GSG linker]
0.74	–	–	–	–	–	–	AWVELEYQYVFEG
0.70	–	–	–	–	–	–	DANLFGYFKDGGS
0.30	2049.75	607.25	2142.25	1853	0.2963	0.865	DLDKAFGGSG [array peptide with C-terminal GSG linker]
0.64	9011	5775	65535	32672.5	0.6409	0.4986	DLFQLVFSGSG [array peptide with C-terminal GSG linker]
0.75	–	–	–	–	–	–	DYFEGQLNHLGGS
0.60	2420	1457.5	17702.75	5389.5	0.6023	0.3044	EAVQKLLFSGSG [array peptide with C-terminal GSG linker]
0.13	4165.5	560.55	1378.5	1220.25	0.1346	0.8852	EDEGLSKFEGGSG [array peptide with C-terminal GSG linker]
0.78	–	–	–	–	–	–	EGFGYLFAHVGGS
0.60	1727	1034	10408.25	6648	0.5987	0.6387	EGYANKLLALFSGSG [array peptide with C-terminal GSG linker]
0.61	3403	2083.5	25315	12943.5	0.6123	0.5113	ELFGALFKGGSG [array peptide with C-terminal GSG linker]
0.63	3049	1911.25	34155	15703	0.6268	0.4598	FGKLYQLYNDGSG [array peptide with C-terminal GSG linker]
0.87	–	–	–	–	–	–	FLQFLGGSG [array peptide with C-terminal GSG linker]
0.73	–	–	–	–	–	–	FNKVLEYKWLFEG
0.64	2470	1574.5	20187.75	12735.5	0.6374	0.6309	FQFGKVVSDGSG [array peptide with C-terminal GSG linker]

Meas. ratio	1 microM FAD (array fluorescence of bound diaphorase)	1 micro no FAD (array fluorescence of bound diaphorase)	10 microM FAD (array fluorescence of bound diaphorase)	10 microM no FAD (array fluorescence of bound diaphorase)	1 microM noFAD/FAD	10 microM noFAD/FAD	Sequence
0.75	–	–	–	–	–	–	FYNFGYQDLEDGS
0.70	–	–	–	–	–	–	GYHLFEKLYFDGS
0.72	–	–	–	–	–	–	HVYGLNLFDGSG [array peptide with C-terminal GSG linker]
0.13	8281.5	1071.25	5467.5	5614.5	0.1294	1.027	KEAPGPRFGGSG [array peptide with C-terminal GSG linker]
0.70	–	–	–	–	–	–	KEDKVFGFRFDGS
2.87	727.5	2086	300.5	2387.25	2.867	0.7943	KHSFQKELGGSG [array peptide with C-terminal GSG linker]
0.14	5147	733.25	2589.25	2522.5	0.1425	0.9742	KNRPYNKDLEDGSG [array peptide with C-terminal GSG linker]
9.39	3707.5	34797.5	36814	46161	9.386	1.254	KPLAVQKVGSG (KPLAVQKVFGSG) [array peptide with C-terminal GSG linker]
0.54	1435	770.5	3699	2948.5	0.5369	0.7971	LAKQNRVEDGSS (LAKQNRVEDGSG) [array peptide with C-terminal GSG linker]
0.61	1164.75	709.25	7142.5	2995.75	0.6089	0.4194	LDRLGEYQFSGSG [array peptide with C-terminal GSG linker]
0.69	–	–	–	–	–	–	LFDNVLEFVEDGS
0.63	2474.5	1559.25	23548.25	8696.5	0.6301	0.3693	LKQLFLEGGSG [array peptide with C-terminal GSG linker]
0.56	4143.5	2317.75	40264.25	26253	0.5594	0.652	LLGFLGGSG [array peptide with C-terminal GSG linker]
0.77	–	–	–	–	–	–	NHLLEGAFVSEGS
2.10	–	–	–	–	–	–	NRKFYWNAGGSG [array peptide with C-terminal GSG linker]
0.62	3436.25	2144.5	27800.25	6739	0.6241	0.2424	NVSDLSQFYLSGSG [array peptide with C-terminal GSG linker]
2.41	–	–	–	–	–	–	PQKSNHFHEAQKR
2.44	–	–	–	–	–	–	PRFNWKPYGGSG [array peptide with C-terminal GSG linker]
